In patent US5691373A, “Nonpeptide endothelin antagonists I” (Warner-Lambert Company, priority 1995, dated 1997):

Legend:
[1] = target: T1, human ETB receptor (Homo sapiens, UniProt P24530); experiment: ERBA-B: [125I]-ET-1 binding, recombinant human ETB receptor expressed in CHO-K1 cells; conditions: human cloned ETB receptor, read-out: ERBA-B IC50, human cloned receptor data
T1 construct: expressed in transfected cells; host or cells: CHO-K1 cells, pRc-CMW (so in the source) expression vector, electroporation; membranes used
T1 sequence (P24530 27-442): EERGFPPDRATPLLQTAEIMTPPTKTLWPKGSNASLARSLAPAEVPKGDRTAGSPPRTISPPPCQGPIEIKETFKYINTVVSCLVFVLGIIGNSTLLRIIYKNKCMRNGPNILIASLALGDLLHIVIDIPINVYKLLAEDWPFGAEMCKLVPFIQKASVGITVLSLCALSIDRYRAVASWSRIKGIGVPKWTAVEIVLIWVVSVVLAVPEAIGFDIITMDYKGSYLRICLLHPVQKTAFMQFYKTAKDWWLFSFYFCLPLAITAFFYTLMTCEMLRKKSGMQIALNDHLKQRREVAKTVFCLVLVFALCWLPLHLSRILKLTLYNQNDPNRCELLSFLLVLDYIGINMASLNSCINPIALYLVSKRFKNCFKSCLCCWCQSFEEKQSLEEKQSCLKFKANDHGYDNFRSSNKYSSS
Protocol: Count filters for radioactivity in gamma counter.
The above process has also been modified by using human recombinant CHO-K1 cells.
The tissue used for human ETB was recombinant human ETB receptor expressed in CHO-K1 cells (chinese hamster ovary cells). The gene for human ETB receptor was cloned and inserted into the pRc-CMW expression vector, then transfected into CHO-K1 cells by electroporation. For binding assays, membranes (0.7 mg protein) of CHO-K1 cells expressing recombinant human ETB receptor were used.
^d Human cloned receptor data

[2] = target: T2, ETA (Oryctolagus cuniculus, UniProt A5A8K3); conditions: ERBA-A IC50, [125I]-ET-1, rabbit renal artery vascular smooth muscle cells
T2 sequence (A5A8K3 21-427): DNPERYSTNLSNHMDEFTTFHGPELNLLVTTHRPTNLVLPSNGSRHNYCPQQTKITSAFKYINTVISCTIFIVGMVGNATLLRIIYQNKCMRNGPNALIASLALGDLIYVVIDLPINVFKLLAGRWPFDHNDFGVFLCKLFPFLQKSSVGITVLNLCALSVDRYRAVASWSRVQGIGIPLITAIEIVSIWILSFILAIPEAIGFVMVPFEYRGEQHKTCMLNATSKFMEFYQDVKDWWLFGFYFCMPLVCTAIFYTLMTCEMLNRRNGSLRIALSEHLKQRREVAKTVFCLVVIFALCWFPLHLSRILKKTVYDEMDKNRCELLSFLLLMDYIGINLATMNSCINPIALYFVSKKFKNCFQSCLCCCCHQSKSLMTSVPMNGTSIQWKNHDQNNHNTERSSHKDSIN

Compound | IC50 [1] [nM] | IC50 [2] [nM]
COc1ccc(C2(O)OC(=O)C(c3ccc4c(c3)OCO4)=C2Cc2cccc(OC)c2OC)cc1 (stereo not shown) [Example 308, 3-Benzo[1,3]dioxol-5-yl-4-(2,3-dimethoxy-benzyl)-5-hydroxy-5-(4-methoxy-phenyl)-5H-furan-2-one] | 2200 | 16
COc1ccc(C2(O)OC(=O)C(c3ccc4c(c3)OCO4)=C2Cc2ccc(OCc3ccccc3)c(OC)c2)cc1 (stereo not shown) [Example 309, 3-Benzo[1,3]dioxol-5-yl-4-(4-benzyloxy-3-methoxybenzyl)-5-hydroxy-5-(4-methoxy-phenyl)-5H-furan-2-one] | 860 | 18
COc1ccc(C2(O)OC(=O)C(c3ccc4c(c3)OCO4)=C2CC2=CC[C@H]3C[C@@H]2C3(C)C)cc1 (stereo partly shown) [Example 310, 3-Benzo[1,3]dioxol-5-yl-4-(6,6-dimethyl-bicyclo[3.1.1]-hept-2-en-2-ylmethyl)-5-hydroxy-5-(4-methoxy-phenyl)-5H-furan-2-one] | 8800 | 540
COc1ccc(C2(O)OC(=O)C(c3ccc4c(c3)OCO4)=C2Cc2ccccc2Oc2ccccc2)cc1 (stereo not shown) [Example 313, 3-Benzo[1,3]dioxol-5-yl-5-hydroxy-5-(4-methoxy-phenyl)-4-(2-phenoxy-benzyl) -5H-furan-2-one] | > 2500 | 99
COc1ccc(C2(O)OC(=O)C(c3ccc4c(c3)OCO4)=C2CC2CCCC2)cc1 (stereo not shown) [Example 314, 3-Benzo[1,3]dioxol-5-yl-4-cyclopentylmethyl-5-hydroxy-5-(4-methoxy-phenyl)-5H-furan-2-one] | 640 | 8.4
CCC(CC)CC1=C(c2ccc3c(c2)OCO3)C(=O)OC1(O)c1ccc(OC)cc1 (stereo not shown) [Example 315, 3-Benzo[1,3]dioxol-5-yl-4-(2-ethyl-butyl)-5-hydroxy-5-(4-methoxy-phenyl)-5H -furan-2-one] | 11800 | 40
COc1ccc(C2(O)OC(=O)C(c3ccc4c(c3)OCO4)=C2CC2CC=CCC2)cc1 (stereo not shown) [Example 316, 3-Benzo[1,3]dioxol-5-yl-4-cyclohex-3-enylmethyl-5-hydroxy-5-(4-methoxy-phenyl)-5H-furan-2-one] | 690 | 8.1
COc1ccc(C2(O)OC(=O)C(c3ccc4c(c3)OCO4)=C2CC(c2ccccc2)C2CCCC2)cc1 (stereo not shown) [Example 319, 3-Benzo[1,3]dioxol-5-yl-4-(2-cyclopentyl-2-phenylethyl)-5-hydroxy-5-(4methoxy-phenyl)-5H-furan-2-one] | 180 | 5.6
COc1ccc(C2(O)OC(=O)C(c3ccc4c(c3)OCO4)=C2CCC2CCCCC2)cc1 (stereo not shown) [Example 322, 3-Benzo-[1,3]dioxol-5-yl-4-(2-cyclohexyl-ethyl)-5-hydroxy-5-(4-methoxy-phenyl)-5H-furan-2-one] | 4000 | 3300
COc1ccc(C2(O)OC(=O)C(c3ccc4c(c3)OCO4)=C2Cc2ccccc2Oc2ccc3c(c2)OCO3)cc1 (stereo not shown) [Example 324, 3-Benzo[1,3]dioxol-5-yl-4-[2-(benzo[1,3]dioxol-5-yloxy)-benzyl]-5-hydroxy-5-(4-methoxy-phenyl)-5H-furan-2-one] | 5300 | 8.4
C=CCOc1ccc(OC)cc1C1=C(Cc2ccccc2)C(O)(c2ccc(OC)cc2)OC1=O (stereo not shown) [Example 337, 3-(2-Allyloxy-5-methoxy-phenyl)-4-benzyl-5-hydroxy-5-(4-methoxy-phenyl)-5H-furan-2-one] | > 25000 | 2500
COc1ccc(C2(O)OC(=O)C(c3ccc4c(c3)OCO4)=C2CC2CCCCCC2)cc1 (stereo not shown) [Example 339, 3-Benzo[1,3]dioxol-5-yl-4-cycloheptylmethyl-5-hydroxy-5-(4-methoxy-phenyl)-5H-furan-2-one] | 1300 | 240
CCCCCC1=C(c2ccc3c(c2)OCO3)C(=O)OC1(O)c1ccc(OC)cc1 (stereo not shown) [Example 340, 3-Benzo[1,3]dioxol-5-yl-5-hydroxy-5-(4-methoxy-phenyl)-4-pentyl-5H-furan-2-one] | 630 | 69
COc1ccc(C2(O)OC(=O)C(c3ccc4c(c3)OCO4)=C2Cc2ccccc2)c(OCC(=O)O)c1 (stereo not shown) [Example 341, [2(4-Benzo[1,3]dioxol-5-yl-3-benzyl-2-hydroxy-5-oxo-2,5-dihydro-furan-2-yl) -5-methoxy-phenoxy]-acetic acid] | > 2500 | 80
C=CCOc1cc(OC)ccc1CC1=C(c2ccc3c(c2)OCO3)C(=O)OC1(O)c1ccc(OC)cc1 (stereo not shown) [Example 343, 4(2-Allyloxy-4-methoxy-benzyl)-3-benzo[1,3]dioxol-5-yl-5-hydroxy-5-(4-methoxy-phenyl)-5H-furan-2-one] | 2200 | 10
COc1ccc(C2(O)OC(=O)C(c3ccc4c(c3)OCO4)=C2Cc2ccc(OC)cc2OCC(=O)O)cc1 (stereo not shown) [Example 344, {2-[4-Benzo[1,3]dioxol-5-yl-2-hydroxy-2-(4-methoxy-phenyl)-5-oxo-2,5-dihydro-furan-3-ylmethyl]-5-methoxy-phenoxy}-acetic acid] | > 25000 | 380
O=C(O)/C(=C(/Cc1ccccc1)C(=O)c1ccc(-n2ccnc2)cc1)c1ccc2c(c1)OCO2 [Example 348, 2-Butenoic acid, 2-(1,3-benzodioxol-5-yl)-4-[4-(1H-imidazol-1-yl)phenyl]4-oxo-3-(phenylmethyl)-] | > 25000 | 7100
COc1ccc(C(=O)/C(Cc2ccc(C(=O)NCCN3CCOCC3)cc2)=C(\C(=O)O)c2ccc3c(c2)OCO3)cc1 [Example 349, 2-benzo[1,3]dioxol-5-yl-4-(4-methoxy-phenyl)-3-[4-(2-morpholin-4-yl-ethylcarbamoyl)-benzyl]-4-oxo-but-2-enoic acid] | 25000 | 510
COc1ccc(C(=O)/C(Cc2ccc(OC(C)C)cc2)=C(\C(=O)O)c2ccc3c(c2)OCO3)cc1 [Example 353, Sodium 2-Benzo[1,3]dioxol-5-yl-3-(4-isopropoxy-benzyl)-4-(4-methoxy-phenyl)-4-oxo-but-2-enoate] | > 250 | 4.4
COc1ccc(C(=O)/C(Cc2ccccc2)=C(\C(=O)O)c2ccc3c(c2)OCO3)cc1C [Example 355, Sodium 2-Benzo[1,3]dioxol-5-yl-3-benzyl-4-(4-methoxy-3-methyl-phenyl)-4-oxo-but-2-enoate] | 1600 | 42
CCOC(=O)COc1c(OC)cc(CC2=C(c3ccc4c(c3)OCO4)C(=O)OC2(O)c2ccc(OC)cc2)cc1OC (stereo not shown) [Example 362, {4-[4-Benzo[1,3]dioxol-5-yl-2-hydroxy-2-(4-methoxyphenyl)-5-oxo-2,5-dihydro-furan-3-ylmethyl]-2,6-dimethoxy-phenoxy}-acetic acid ethyl ester] | 1200 | 26
CCOC(=O)COc1cc(CC2=C(c3ccc4c(c3)OCO4)C(=O)OC2(O)c2ccc(OC)cc2)cc(OC)c1OC (stereo not shown) [Example 363, {5-[4-Benzo[1,3]dioxol-5-yl-2-hydroxy-2-(4-methoxyphenyl)-5-oxo-2,5-dihydro-furan-3-ylmethyl]-2,3-dimethoxy-phenoxy}-acetic acid ethyl ester] | 1100 | < 2.5
COc1ccc(C(=O)/C(Cc2ccc(NC(C)=O)cc2)=C(\C(=O)O)c2ccc3c(c2)OCO3)cc1 [Example 366, Potassium 3-(4-Acetylamino-benzyl)-2-benzo[1,3]dioxol-5-yl-4-(4-methoxy-phenyl)-4-oxo-but-2-enoate] | 4900 | 7.3
COc1ccc(C(=O)/C(Cc2ccccc2)=C(\C(=O)O)c2cc(OC)c3c(c2)OCO3)cc1 [Example 368, Sodium 3-Benzyl-2-(7-methoxy-benzo[1,3]dioxol-5-yl)-4-(4-methoxy-phenyl)-4-oxo-but-2-enoate] | 960 | < 25
COc1ccc(C(=O)/C(Cc2ccccc2)=C(\C(=O)O)c2cc(OC)c3c(c2)OCO3)cc1C [Example 370, Sodium 3-Benzyl-2-(7-methoxy-benzo[1,3]dioxol-5-yl)-4-(4-methoxy-3-methyl-phenyl)-4-oxo-but-2-enoate] | 1530 | 10
COc1ccc(C(=O)/C(Cc2cc(OC)c(OC)c(OC)c2)=C(\C(=O)O)c2cc(OC)c3c(c2)OCO3)cc1 [Example 371] | 328 | 0.39
